Test results from the supplement of paper PMC7661543.
± gives the standard deviation of the averaged measurements.

Tests used:
Assay in all cases: relative cell number vs DMSO control (72 h) (% of DMSO); higher = less growth inhibition (more cells)
Conditions in all cases: sgRNA knockout: sgNT
SKBR3 = test system: SKBR3
Experimental: (§1)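 QMAP-Seq: a pool of 5 breast cancer cell lines (ZR-75-1, SKBR3, HCC-38, MDA-MB-231, BT-20), each carrying 12 doxycycline-inducible Cas9 sgRNA perturbations (11 knockouts plus non-targeting sgNT), was treated with compounds for 72 h at four 10-fold doses (10 nM-10 uM or 1 nM-1 uM range). Barcodes were amplified and sequenced, and cell number was interpolated from 293T spike-in standard curves. The result is expressed as % of the median of DMSO wells. Two biological replicates.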

ZR-75-1 = test system: ZR-75-1
Experimental: as §1

MDA-MB-231 = test system: MDA-MB-231
Experimental: as §1

BT-20 = test system: BT-20
Experimental: as §1

HCC-38 = test system: HCC-38
Experimental: as §1

Structure (SMILES)	relative cell number (SKBR3; 10 nM)	relative cell number (SKBR3; 100 nM)	relative cell number (SKBR3; 1000 nM)	relative cell number (SKBR3; 10000 nM)	relative cell number (ZR-75-1; 10 nM)	relative cell number (ZR-75-1; 100 nM)	relative cell number (ZR-75-1; 1000 nM)	relative cell number (ZR-75-1; 10000 nM)	relative cell number (MDA-MB-231; 10 nM)	relative cell number (MDA-MB-231; 100 nM)	relative cell number (MDA-MB-231; 1000 nM)	relative cell number (MDA-MB-231; 10000 nM)	relative cell number (BT-20; 10 nM)	relative cell number (BT-20; 100 nM)	relative cell number (BT-20; 1000 nM)	relative cell number (BT-20; 10000 nM)	relative cell number (HCC-38; 10 nM)	relative cell number (HCC-38; 100 nM)	relative cell number (HCC-38; 1000 nM)	relative cell number (HCC-38; 10000 nM)
O=C(Nc1ccc([N+](=O)[O-])cc1Cl)c1cc(Cl)ccc1O [Niclosamide]	108 ± 7.6	83.6 ± 3.2	82.1 ± 19	59.8 ± 2.1	88.4 ± 14	104 ± 61	102 ± 80	50.2 ± 10	115 ± 21	119 ± 34	97.4 ± 20	37.7 ± 14	91.7 ± 20	109 ± 7	98.5 ± 3.8	55 ± 12	92.2 ± 13	92.62 ± 0.79	113 ± 7.2	46.5 ± 11
Cc1cn(-c2cc(NC(=O)c3ccc(C)c(Nc4nccc(-c5cccnc5)n4)c3)cc(C(F)(F)F)c2)cn1 [Nilotinib]	79.5 ± 24	88.7 ± 0.9	98.3 ± 25	13.8 ± 12	75.2 ± 1.9	94.4 ± 29	107 ± 2.8	35.1 ± 20	80.9 ± 6.4	118 ± 19	88.1 ± 1.5	63.5 ± 28	99.6 ± 18	87.1 ± 14	94.2 ± 22	63.1 ± 6.3	93.4 ± 2.5	102 ± 16	98.8 ± 11	93.7 ± 30
O=[N+]([O-])c1ccc(O)c2ncccc12 [Nitroxoline]	82.9 ± 23	91.1 ± 3.5	43.59 ± 0.14	40 ± 6.6	86.7 ± 6.9	94.1 ± 17	97.4 ± 51	33.4 ± 19	54.2 ± 9.2	103 ± 22	88.3 ± 10	37.7 ± 9.7	93.1 ± 19	87.9 ± 43	114 ± 13	56.1 ± 6.1	86.5 ± 3.6	88.83 ± 0.36	107 ± 14	45.9 ± 0.87
COc1cccc2cc(-c3nc([C@H]4CC[C@H](C(=O)O)CC4)n4ncnc(N)c34)[nH]c12 [OSI027]	87.6 ± 25	116 ± 31	69.9 ± 14	27.8 ± 6.2	81.1 ± 21	94.9 ± 17	63.4 ± 24	25.4 ± 2	97.4 ± 8.9	128 ± 27	83.4 ± 29	58.9 ± 11	85.8 ± 7.3	113 ± 1.8	83.39 ± 0.24	52.5 ± 14	108 ± 20	107 ± 29	84.2 ± 1.9	31.2 ± 0.23
O=C(c1cc(Cc2n[nH]c(=O)c3ccccc23)ccc1F)N1CCN(C(=O)C2CC2)CC1 [Olaparib]	87.7 ± 1.6	111 ± 9.3	85.4 ± 11	48.7 ± 9.5	78.3 ± 13	89.3 ± 28	64.1 ± 3.7	91.3 ± 17	87.3 ± 12	83.4 ± 1.6	93.9 ± 22	93.2 ± 31	103 ± 6	85.9 ± 12	73.2 ± 6.7	94 ± 7.7	93.4 ± 4.8	102 ± 2.2	88.6 ± 1.6	62.5 ± 0.89
